Target: T1, human kinase Mps-1 (Homo sapiens, UniProt P33981)
T1 construct: N-terminally GST-tagged human full length recombinant Mps-1 kinase; GST (N); purchased Invitrogen, Karslruhe, Germany PV4071
T1 sequence (P33981 1-857): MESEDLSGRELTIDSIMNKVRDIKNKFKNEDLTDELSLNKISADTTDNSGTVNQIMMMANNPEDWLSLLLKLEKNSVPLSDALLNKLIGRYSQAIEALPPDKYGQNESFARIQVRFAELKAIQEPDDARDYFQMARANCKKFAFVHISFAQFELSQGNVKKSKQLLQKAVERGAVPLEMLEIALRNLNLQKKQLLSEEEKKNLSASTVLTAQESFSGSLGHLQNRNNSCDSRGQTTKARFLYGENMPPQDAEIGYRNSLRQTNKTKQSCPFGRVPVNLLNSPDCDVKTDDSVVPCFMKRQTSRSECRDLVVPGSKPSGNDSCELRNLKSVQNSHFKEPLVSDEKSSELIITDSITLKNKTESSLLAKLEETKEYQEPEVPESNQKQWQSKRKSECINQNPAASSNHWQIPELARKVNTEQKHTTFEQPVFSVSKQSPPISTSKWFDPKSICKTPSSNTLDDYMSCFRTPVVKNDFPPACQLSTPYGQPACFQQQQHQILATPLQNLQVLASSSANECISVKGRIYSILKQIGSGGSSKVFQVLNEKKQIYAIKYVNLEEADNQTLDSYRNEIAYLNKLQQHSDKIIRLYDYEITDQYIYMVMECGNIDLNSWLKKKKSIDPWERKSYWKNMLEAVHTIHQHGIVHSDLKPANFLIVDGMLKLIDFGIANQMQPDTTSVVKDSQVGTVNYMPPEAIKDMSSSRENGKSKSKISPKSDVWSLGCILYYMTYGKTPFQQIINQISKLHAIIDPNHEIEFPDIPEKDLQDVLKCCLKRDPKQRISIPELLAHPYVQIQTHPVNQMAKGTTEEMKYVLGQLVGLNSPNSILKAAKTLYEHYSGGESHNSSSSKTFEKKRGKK
Assay: Mps-1 kinase assay (TR-FRET)
Assay type: biochemical
Settings: Mps-1 TR-FRET kinase assay; avg; read-out: Mps1 avg (IC50 [mol/l])
How it was run: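 GST-tagged full-length recombinant human Mps-1 (~0.5 nM) pre-incubated 15 min with compound, then reacted 60 min at 22 °C with 10 μM ATP and 1 μM biotinylated peptide in Hepes pH 7.7 buffer. EDTA-stopped; TR-FRET (Eu anti-phospho-Ser/Thr to SA-XLent) 665/620 nm ratio normalised to no-inhibitor and no-enzyme controls.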

SMILES | IC50 [µM]
Cc1nsc(Nc2cnc(C(F)(F)F)cn2)c1C(=O)Nc1ccc(O[C@@H]2CCN(CC(F)F)C[C@H]2F)nc1 [Example 366, N-(6-{[(3R,4R)-1-(2,2-difluoroethyl)-3-fluoropiperidin-4-yl]oxy}pyridin-3-yl)-3-methyl-5-{[5-(trifluoromethyl)pyrazin-2-yl]amino}-1,2-thiazole-4-carboxamide] | > 20
Cc1nsc(Nc2cnc(C(F)(F)F)cn2)c1C(=O)Nc1ccc(O[C@@H]2CCN(CC(F)(F)F)C[C@H]2F)nc1 [Example 367, N-(6-{[(3R,4R)-3-fluoro-1-(2,2,2-trifluoroethyl)piperidin-4-yl]oxy}pyridin-3-yl)-3-methyl-5-{[5-(trifluoromethyl)pyrazin-2-yl]amino}-1,2-thiazole-4-carboxamide] | > 20
Cc1nsc(Nc2cnc(C(F)(F)F)cn2)c1C(=O)Nc1ccc(O[C@@H]2CCN(CCC(F)(F)F)C[C@H]2F)nc1 [Example 368, N-(6-{[(3R,4R)-3-fluoro-1-(3,3,3-trifluoropropyl)piperidin-4-yl]oxy}pyridin-3-yl)-3-methyl-5-{[5-(trifluoromethyl)pyrazin-2-yl]amino}-1,2-thiazole-4-carboxamide] | > 20
Cc1nsc(Nc2cnc(C(F)(F)F)cn2)c1C(=O)Nc1ccc(OC[C@@H]2CCCN(CC(F)F)C2)nc1 [Example 375, N-(6-{[(3R)-1-(2,2-difluoroethyl)piperidin-3-yl]methoxy}pyridin-3-yl)-3-methyl-5-{[5-(trifluoromethyl)pyrazin-2-yl]amino}-1,2-thiazole-4-carboxamide] | > 20
Cc1nsc(Nc2cnc(C(F)(F)F)cn2)c1C(=O)Nc1ccc(O[C@H]2CCN(CC(F)F)C2)nc1 [Example 382, N-(6-{[(3S)-1-(2,2-difluoroethyl)pyrrolidin-3-yl]oxy}pyridin-3-yl)-3-methyl-5-{[5-(trifluoromethyl)pyrazin-2-yl]amino}-1,2-thiazole-4-carboxamide] | > 20

Next, values leading:

IC50 [µM] | SMILES
> 20 | CCN1CC[C@H](Oc2ccc(NC(=O)c3c(C)nsc3Nc3cnc(C(F)(F)F)cn3)cn2)[C@@H](F)C1 [Example 365, N-(6-{[(3S,4S)-1-ethyl-3-fluoropiperidin-4-yl]oxy}pyridin-3-yl)-3-methyl-5-{[5-(trifluoromethyl)pyrazin-2-yl]amino}-1,2-thiazole-4-carboxamide]
> 20 | CCN1CC[C@@H](Oc2ccc(NC(=O)c3c(C)nsc3Nc3cnc(C(F)(F)F)cn3)cn2)[C@H](F)C1 [Example 369, N-(6-{[(3R,4R)-1-ethyl-3-fluoropiperidin-4-yl]oxy}pyridin-3-yl)-3-methyl-5-{[5-(trifluoromethyl)pyrazin-2-yl]amino}-1,2-thiazole-4-carboxamide]
> 20 | Cc1nsc(Nc2cnc(C(F)(F)F)cn2)c1C(=O)Nc1ccc(N2CCN(CC(F)F)CC2)cn1 [Example 372, N-{5-[4-(2,2-difluoroethyl)piperazin-1-yl]pyridin-2-yl}-3-methyl-5-{[5-(trifluoromethyl)pyrazin-2-yl]amino}-1,2-thiazole-4-carboxamide]
> 20 | Cc1nsc(Nc2cnc(C(F)(F)F)cn2)c1C(=O)Nc1ccc(N2CCN(CC(F)(F)F)CC2)cn1 [Example 373, 3-methyl-N-{5-[4-(2,2,2-trifluoroethyl)piperazin-1-yl]pyridin-2-yl}-5-{[5-(trifluoromethyl)pyrazin-2-yl]amino}-1,2-thiazole-4-carboxamide]
> 20 | Cc1nsc(Nc2cnc(C(F)(F)F)cn2)c1C(=O)Nc1ccc(N2CCN(CCC(F)(F)F)CC2)cn1 [Example 374, 3-methyl-5-{[5-(trifluoromethyl)pyrazin-2-yl]amino}-N-{5-[4-(3,3,3-trifluoropropyl)piperazin-1-yl]pyridin-2-yl}-1,2-thiazole-4-carboxamide]
> 20 | Cc1nsc(Nc2cnc(C(F)(F)F)cn2)c1C(=O)Nc1ccc(OC[C@@H]2CCCN(CC(F)(F)F)C2)nc1 [Example 376, 3-methyl-N-(6-{[(3R)-1-(2,2,2-trifluoroethyl)piperidin-3-yl]methoxy}pyridin-3-yl)-5-{[5-(trifluoromethyl)pyrazin-2-yl]amino}-1,2-thiazole-4-carboxamide]
≥ 20 | Cc1nsc(Nc2cnc(C(F)(F)F)cn2)c1C(=O)Nc1ccc(O[C@@H]2CCCN(CCC(F)(F)F)C2)nc1 [Example 387, 3-methyl-5-{[5-(trifluoromethyl)pyrazin-2-yl]amino}-N-(6-{[(3R)-1-(3,3,3-trifluoropropyl)piperidin-3-yl]oxy}pyridin-3-yl)-1,2-thiazole-4-carboxamide]

— patent US20170334899A1, “AMINO-SUBSTITUTED ISOTHIAZOLES” (Bayer Pharma Aktiengesellschaft, priority 2014, published 2017)
